Source: publication PMC9029089, “1,5-Disubstituted Acylated 2-Amino-4,5-dihydroimidazoles as a New Class of Retinoic Acid Receptor–Related Orphan Receptor (ROR) Inhibitors” (International Journal of Molecular Sciences, 2022)

Tests used:
[1] = test system: experimental autoimmune encephalomyelitis mouse model; parameters: method as in PMID 21441909, PMID 21499262, PMID 21566134; details: EAE mouse model; cited from earlier work
Th17 cells = test system: Th17 cells; parameters: method as in PMID 21441909, PMID 21499262, PMID 21566134; details: RORγ inverse agonists; cited from earlier work
[2] = test system: TRex-CHO-luciferase-RORγ cells; assay: resazurin cell viability assay; format: cell-based; details: 5 µg/mL
Procedure: For screening FIU libraries, cells were resuspended in Ham’s F-12 assay medium containing 2% charcoal-treated FBS and no selection drugs. Ten thousand cells per well were seeded in 30 µL of assay medium in 384 white plates with clear bottom (Greiner). Cells were allowed to attach for 2 h, followed by compound treatment and stimulation with 20 ng/mL doxycycline for an additional 16–20 h. Appropriate solvent controls, negative controls with no doxycycline, and blanks with no cells were included in every plate. Prior to measuring luciferase activity, 6 µL of 0.15 mg/mL resazurin (Cayman Chemical) in PBS were added and cells were incubated for 1 h at 37 °C. Fluorescence intensity was detected at 545 nm excitation/590 nm emission using a CLARIOstar reader (BMGLabtech) as a measure of cell viability, to identify any potential cytotoxic effect of test compounds and mixtures. Following the resazurin assay, the medium was removed and 20 µL of BriteLite-Plus luciferase reagent (Perking Elmer) were added; luminescence was measured in a CLARIOstar reader using a 384 aperture spoon and a 0.1 sec measuring time interval.

RORγ = target: T1, RORγ (Mus musculus, UniProt P51450); assay: Gal4-RORγ-LBD UAS-luciferase reporter assay in TRex-CHO-K1 cells (doxycycline-stimulated); format: cell-based; details: individual controls 1295.201-307, 5 μg/ml, triplicate
T1 construct: mRORγ (Pro-261-end); expressed in transfected cells
T1 sequence (P51450 261-516 limits assumed): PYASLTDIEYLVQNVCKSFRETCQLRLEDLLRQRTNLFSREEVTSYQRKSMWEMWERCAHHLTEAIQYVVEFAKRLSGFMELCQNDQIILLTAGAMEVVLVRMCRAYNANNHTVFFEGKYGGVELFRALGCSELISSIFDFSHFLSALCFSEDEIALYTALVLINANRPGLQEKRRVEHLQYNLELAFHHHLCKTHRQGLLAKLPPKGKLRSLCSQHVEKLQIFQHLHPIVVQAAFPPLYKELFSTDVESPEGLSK

Row | Compound | suppression of the onset of disease [1] | suppression of Th17 differentiation (Th17 cells) | toxicity as determined by a resazurin assay [2] | % Inhibition RORγ 5 μg/ml (RORγ)
1 | C[C@H]1O[C@@H](O[C@H]2[C@@H](O)C[C@H](O[C@H]3[C@@H](O)C[C@H](O[C@H]4CC[C@@]5(C)[C@H](CC[C@@H]6[C@@H]5C[C@@H](O)[C@]5(C)[C@@H](C7=CC(=O)OC7)CC[C@]65O)C4)O[C@@H]3C)O[C@@H]2C)C[C@H](O)[C@@H]1O [digoxin] | suppress Th17 differentiation and the onset of disease | suppress Th17 differentiation |  | 
2 | CC(=O)Nc1nc(C)c(S(=O)(=O)Nc2ccc(C(O)(C(F)(F)F)C(F)(F)F)cc2)s1 [SR1001] | suppress Th17 differentiation and the onset of disease | suppress Th17 differentiation |  | 
3 | O=C(Cc1ccccc1)NC1=NC[C@H](Cc2ccccc2)N1CCC12CC3CC(CC(C3)C1)C2 [1295.271] |  |  | significant toxicity | 36.0%
4 | C[C@H]1[C@H](C)CC[C@]2(C(=O)O)CC[C@]3(C)C(=CC[C@@H]4[C@@]5(C)CC[C@H](O)C(C)(C)[C@@H]5CC[C@]43C)[C@H]12 [ursolic acid] | suppress Th17 differentiation and the onset of disease | suppress Th17 differentiation |  | 
